This assay has as its target LytA239–252 (Streptococcus pneumoniae, UniProt P06653). The assay can be described thus: near-UV CD titration, ellipticity at […] nm. The class given is binding.

As to `C[N+](C)(C)CCO` [choline], binding was put at a Kd of 80 ± 10 mM.
